Results as given in ChEMBL document CHEMBL4342516, “Discovery of Membrane-Bound Pyrophosphatase Inhibitors Derived from an Isoxazole Fragment” (ACS Med Chem Lett, 2020).
The source made the active and inactive calls. The rule behind the calls is not given here.

Assays:
[1] = Inhibition of Thermotoga maritima membrane bound pyrophosphatase at 100 uM using sodium pyrophosphate as substrate preincubated for 5 mins followed by substrate addition and measured after 5 mins by spectrophotometry
Thermotoga maritima = test: Inhibition of Thermotoga maritima membrane bound pyrophosphatase at 100 uM using sodium pyrophosphate as substrate preincubated for 5 mins followed by substrate addition and measured after 5 mins by spectrophotometry relative to control
Plasmodium falciparum [2] = test: (§1) Inhibition of Plasmodium falciparum 3D7 pyrophosphatase-VP1 expressed in baculovirus infected insect cells using sodium pyrophosphate as substrate preincubated for 5 mins followed by substrate addition and measured after 10 mins by spectrophotometry
[3] = as §1
Plasmodium falciparum [4] = test: Antiplasmodial activity against Plasmodium falciparum 3D7 infected in human erythrocytes assessed as growth inhibition after 72 hrs by SYBR Gren-I fluorescent dye based method; format: functional, organism-based; conditions: 3D7, 72 h

SMILES: CC(C)(C)c1cc(CCC(=O)O)cc(C(C)(C)C)c1
- IC50 [1]: Not Active

SMILES: Nc1ccc(S(=O)(=O)N2CCCC2C(=O)O)cc1 (stereo not given)
- inhibition (Thermotoga maritima): > 50%
- IC50 ([1]; read-out: IC50): 110 µM

SMILES: CC(C)(C)c1cccc(-c2cc(C(=O)Oc3ccccc3Br)no2)c1
- IC50 ([1]; read-out: IC50): 6.7 µM

SMILES: CC(C)(C)c1cc(C(=O)NCC(=O)O)cc(C(C)(C)C)c1
- IC50 [1]: Not Active

SMILES: O=c1[nH]c2ccc(S(=O)(=O)CCO)cc2o1
- inhibition (Thermotoga maritima): > 50%
- IC50 ([1]; read-out: IC50): 43 µM

SMILES: CC(C)(C)c1cc(C(=O)Nc2ccc(S(N)(=O)=O)cc2)cc(C(C)(C)C)c1
- IC50 ([1]; read-out: IC50): 47 µM

SMILES: Cc1nc(-c2cc(C(=O)Oc3ccccc3Br)no2)cs1
- IC50 ([1]; read-out: IC50): 460 µM

SMILES: CC(C)(C)c1cc(C(=O)NCCCn2ccnc2)cc(C(C)(C)C)c1
- IC50 ([1]; read-out: IC50): 210 µM

SMILES: CCOC(=O)c1cc(-c2ccc(OC)c(S(=O)(=O)Nc3cccc4c3OCO4)c2)on1
- IC50 ([1]; read-out: IC50): 36 µM

SMILES: O=C(Oc1ccccc1Br)c1cnc(-c2ccccc2)s1
- IC50 ([1]; read-out: IC50): 48 µM

SMILES: CC(C)(C)c1cc(C(=O)Nc2ccccc2Br)cc(C(C)(C)C)c1
- IC50 ([1]; read-out: IC50): 47 µM

SMILES: O=C(O)c1cc(-c2ccc([N+](=O)[O-])cc2)[nH]n1
- IC50 [1]: Not Active

SMILES: Cc1cccc(-c2cc(C(=O)Oc3ccccc3Br)no2)c1
- IC50 ([1]; read-out: IC50): 6.1 µM

SMILES: Cc1cc(C)cc(-c2cc(C(=O)Oc3ccccc3)no2)c1
- IC50 ([1]; read-out: IC50): 26 µM

SMILES: Cc1cc(C)cc(-c2cc(C(=O)Nc3ccccc3Br)no2)c1
- IC50 [1]: Not Active

SMILES: CC(C)(C)c1cc(C(=O)Nc2ccc([N+](=O)[O-])cc2)cc(C(C)(C)C)c1
- IC50 ([1]; read-out: IC50): 100 µM

SMILES: CCOC(=O)c1cc(-c2cc(C(C)(C)C)cc(C(C)(C)C)c2)on1
- IC50 ([1]; read-out: IC50): 72 µM

SMILES: CC(C)(C)c1cc(-c2cc(C(=O)Oc3ccccc3Br)no2)cc(C(C)(C)C)c1
- IC50 ([1]; read-out: IC50): 10 µM
- inhibition (Plasmodium falciparum [2]): inactive

SMILES: O=C(O)c1csc(-c2ccc([N+](=O)[O-])cc2)n1
- IC50 ([1]; read-out: IC50): 80 µM

SMILES: CCOC(=O)c1ccc(S(=O)(=O)NC2=NC(=O)CS2)cc1
- inhibition (Thermotoga maritima): > 50%
- IC50 ([1]; read-out: IC50): 120 µM

SMILES: O=C(O)c1cc(-c2ccccc2)n[nH]1
- IC50 ([1]; read-out: IC50): 130 µM

SMILES: O=C(O)c1cnc(-c2ccccc2)s1
- IC50 ([1]; read-out: IC50): 29 µM

SMILES: O=C(O)c1cc(-c2ccccc2[N+](=O)[O-])on1
- inhibition (Thermotoga maritima): > 50%
- IC50 ([1]; read-out: IC50): 71 µM

SMILES: Cc1cc(C)cc(-c2cc(C(=O)Oc3ccccc3Br)no2)c1
- IC50 ([1]; read-out: IC50): 6.9 µM
- IC50 [3]: 55 µM
- IC50 (Plasmodium falciparum [4]): 99 µM

SMILES: CC(C)(C)c1cc(C(=O)Nc2nccs2)cc(C(C)(C)C)c1
- IC50 ([1]; read-out: IC50): 39 µM

SMILES: Cc1nc(-c2cc(C(=O)O)no2)cs1
- IC50 ([1]; read-out: IC50): 17 µM

SMILES: CC(C)(C)c1cc(C(=O)Nc2nc3ccccc3s2)cc(C(C)(C)C)c1
- IC50 ([1]; read-out: IC50): 91 µM

SMILES: Cc1c(-c2cc(C(=O)O)no2)cnn1C
- IC50 [1]: Not Active
